In patent US20100168451A1, “PREPARATIVE METHOD OF DIHYDROCUCURBITACIN F-25-O-ACETATE AND THE USE THEREOF IN THE MANUFACTURE OF MEDICAMENTS FOR TREATING CANCERS” (priority 2007, published 2010):
≈ marks a conversion by molar mass, not a printed value. Read-outs that look alike come from different tables or passages of the source.

Key:
[1] = system: HL60 human leukemia cell strain; test: modified MTT in vitro screening, HL60; type: cell-based
Description: (§1) 1. Screening research in vitro, employing modified MTT of anticancer substance activity. Cancer Cell Strain: [table]

[2] = system: PC-3 human prostate cancer cell strain; test: modified MTT in vitro screening, PC-3; type: cell-based
Description: as §1

[3] = system: GLC-15 human lung cancer cell strain; test: modified MTT in vitro screening, GLC-15; type: cell-based
Description: as §1

[4] = animal body weight, Lewis lung cancer mice; type: in vivo, mouse
Description: After inoculating Kunming murine for H22 hepatic cancer and murine Lewis lung cancer, three kinds of preparation, i.e., suspension, emulsion, and lyophilized preparation, are administrated in three different ways of administration comprising gastric perfusion, intraperitoneal injection and intravenous injection, and the administration dose is high, middle and low respectively.

[5] = system: HEP-2 human laryngeal cancer cell strain; test: modified MTT in vitro screening, HEP-2; type: cell-based
Description: as §1

mouse Lewis lung cancer = test: curative effect on mouse Lewis lung cancer in vivo
Description: (§2) After inoculating Kunming murine for H22 hepatic cancer and murine Lewis lung cancer, three kinds of preparation, i.e., suspension, emulsion, and lyophilized preparation, are administrated in three different ways of administration comprising gastric perfusion, intraperitoneal injection and intravenous injection, and the administration dose is high, middle and low respectively. Then the curative effect is compared with positive control group and the tumour inhibition efficiency is calculated, and the results are shown as follows: […]

[6] = system: A549 human lung cancer cell strain; test: modified MTT in vitro screening, A549; type: cell-based; conditions: for IC50: A549
Description: as §1

[7] = system: SMMC-7721 human hepatic cancer cell strain; test: modified MTT in vitro screening, SMMC-7721; type: cell-based
Description: as §1

[8] = system: SGC-7901 human gastric cancer cell strain; test: modified MTT in vitro screening, SGC-7901; type: cell-based
Description: as §1

[9] = system: Bel-7402 human hepatic cancer cell strain; test: modified MTT in vitro screening, Bel-7402; type: cell-based
Description: as §1

mouse H22 liver cancer = test: curative effect on mouse H22 liver cancer in vivo
Description: as §2

[10] = mouse, in vivo
Description: as §2

[11] = Table VI, 7 mg/kg/d Ipx2, the first, third days
[12] = emulsion, intravenous, 5 mg/kg/d ivx10qd
[13] = emulsion, intravenous, 10 mg/kg/d ivx10qd
[14] = emulsion, intravenous, 15 mg/kg/d ivx10qd
[15] = lyophilized preparation, intravenous, 5 mg/kg/d ivx10qd
[16] = lyophilized preparation, intravenous, 10 mg/kg/d ivx10qd
[17] = lyophilized preparation, intravenous, 15 mg/kg/d ivx10qd
[18] = suspension, gastric perfusion, 30 mg/kg/d igx10qd
[19] = suspension, gastric perfusion, 60 mg/kg/d igx10qd
[20] = suspension, gastric perfusion, 90 mg/kg/d igx10qd
[21] = suspension, intraperitoneal administration (igx10qd), 30 mg/kg/d
[22] = suspension, intraperitoneal administration (igx10qd), 60 mg/kg/d
[23] = suspension, intraperitoneal administration (igx10qd), 90 mg/kg/d
[24] = Homo sapiens, read-out: Ic 50 for the growth of tumour cells
[25] = mouse, in vivo, iv, 5 mg/kg/day
[26] = mouse, in vivo, iv, 10 mg/kg/day
[27] = mouse, in vivo, iv, 15 mg/kg/day

N.N.[Cl][Pt][Cl] [DDP(Cisplatin), Cisplatin, reference compound]
Ic 50 for the growth of tumour cells [1]: 0.695 µg/mL | Ic 50 for the growth of tumour cells [2]: 1.85 µg/mL | Ic 50 for the growth of tumour cells [3]: 1.72 µg/mL | Animal body weight (g) end ([4]; Table VI, 7 mg/kg/d Ipx2, the first, third days, end): 18.1 g | Animal body weight (g) Start ([4]; Table VI, 7 mg/kg/d Ipx2, the first, third days, start): 18.4 g | Ic 50 for the growth of tumour cells ([5]; HEP-2): 0.3 µg/mL | Inhibition efficiency (mouse Lewis lung cancer; [11]): 92.98 | Tumour weight (g) X ± SD (mouse Lewis lung cancer; [11]): 0.172 ± 0.06 g | Ic 50 for growth of the human lung cancer cells ([6]; human lung cancer cells): 1.6 µg/mL | Ic 50 for the growth of tumour cells [7]: 0.21 µg/mL | Ic 50 for the growth of tumour cells [8]: 0.89 µg/mL | Ic 50 for the growth of tumour cells [9]: 2.31 µg/mL

CC(=O)OC(C)(C)CCC(=O)[C@](C)(O)[C@H]1[C@H](O)C[C@@]2(C)[C@@H]3CC=C4[C@@H](C[C@H](O)[C@@H](O)C4(C)C)[C@]3(C)C(=O)C[C@]12C [Curcurbitacin IIa, dihydrocucurbitacin F-25-O-acetate]
IC50 ([1]; Homo sapiens, HL-60, read-out: Ic 50 for the growth of tumour cells): 43.2 µg/mL (≈ 76.8 µM) | Inhibition efficiency (mouse H22 liver cancer; [12]): 32.38 | Tumour weight (g) X ± SD (mouse H22 liver cancer; [12]): 2.13 ± 0.20 g | Inhibition efficiency (mouse H22 liver cancer; [13]): 44.12 | Tumour weight (g) X ± SD (mouse H22 liver cancer; [13]): 1.76 ± 0.08 g | Inhibition efficiency (mouse H22 liver cancer; [14]): 55.02 | Tumour weight (g) X ± SD (mouse H22 liver cancer; [14]): 1.48 ± 0.11 g | Inhibition efficiency (mouse H22 liver cancer; [15]): 31.1 | Tumour weight (g) X ± SD (mouse H22 liver cancer; [15]): 2.06 ± 0.18 g | Inhibition efficiency (mouse H22 liver cancer; [16]): 39.13 | Tumour weight (g) X ± SD (mouse H22 liver cancer; [16]): 1.82 ± 0.19 g | Inhibition efficiency (mouse H22 liver cancer; [17]): 46.15 | Tumour weight (g) X ± SD (mouse H22 liver cancer; [17]): 1.61 ± 0.18 g | Inhibition efficiency (mouse H22 liver cancer; [18]): 27.13 | Tumour weight (g) X ± SD (mouse H22 liver cancer; [18]): 2.31 ± 0.21 g | Inhibition efficiency (mouse H22 liver cancer; [19]): 32.09 | Tumour weight (g) X ± SD (mouse H22 liver cancer; [19]): 2.14 ± 0.20 g | Inhibition efficiency (mouse H22 liver cancer; [20]): 38.17 | Tumour weight (g) X ± SD (mouse H22 liver cancer; [20]): 1.96 ± 0.16 g | Inhibition efficiency (mouse H22 liver cancer; [21]): 36.07 | Tumour weight (g) X ± SD (mouse H22 liver cancer; [21]): 1.95 ± 0.12 g | Inhibition efficiency (mouse H22 liver cancer; [22]): 51.05 | Tumour weight (g) X ± SD (mouse H22 liver cancer; [22]): 1.49 ± 0.12 g | Inhibition efficiency (mouse H22 liver cancer; [23]): 57.05 | Tumour weight (g) X ± SD (mouse H22 liver cancer; [23]): 1.31 ± 0.12 g | IC50 [2, 24]: 10.1 µg/mL (≈ 17.9 µM) | IC50 [3, 24]: 14.6 µg/mL (≈ 25.9 µM) | Animal body weight (g) Start ([4]; mouse, in vivo, 5 mg/kg/day): 18.1 g | Animal body weight (g) end ([4]; mouse, in vivo, 5 mg/kg/day): 20.5 g | Animal body weight (g) Start ([4]; mouse, in vivo, 10 mg/kg/day): 17.7 g | Animal body weight (g) end ([4]; mouse, in vivo, 10 mg/kg/day): 21.1 g | Animal body weight (g) Start ([4]; mouse, in vivo, 15 mg/kg/day): 18.0 g | Animal body weight (g) end ([4]; mouse, in vivo, 15 mg/kg/day): 20.7 g | Animal body weight (g) Start [4, 25]: 19.3 g | Animal body weight (g) end [4, 25]: 22.4 g | Animal body weight (g) Start [4, 26]: 19.1 g | Animal body weight (g) end [4, 26]: 22.9 g | Animal body weight (g) Start [4, 27]: 19.5 g | Animal body weight (g) end [4, 27]: 22.1 g | Animal body weight (g) Start ([10]; 30 mg/kg/day): 19.0 g | Animal body weight (g) end ([10]; 30 mg/kg/day): 26.0 g | Animal body weight (g) Start ([10]; 60 mg/kg/day): 19.3 g | Animal body weight (g) end ([10]; 60 mg/kg/day): 26.3 g | Animal body weight (g) Start ([10]; 90 mg/kg/day): 19.1 g | Animal body weight (g) end ([10]; 90 mg/kg/day): 25.7 g | Animal body weight (g) end ([10]; iv, 10 mg/kg/day): 25.9 g | IC50 ([5]; Homo sapiens, HEp-2, read-out: Ic 50 for the growth of tumour cells): 15.8 µg/mL (≈ 28.1 µM) | Inhibition efficiency (mouse Lewis lung cancer; [12]): 40.76 | Tumour weight (g) X ± SD (mouse Lewis lung cancer; [12]): 1.69 ± 0.11 g | Inhibition efficiency (mouse Lewis lung cancer; [13]): 47.37 | Tumour weight (g) X ± SD (mouse Lewis lung cancer; [13]): 1.50 ± 0.14 g | Inhibition efficiency (mouse Lewis lung cancer; [14]): 59.30 | Tumour weight (g) X ± SD (mouse Lewis lung cancer; [14]): 1.16 ± 0.16 g | Tumour weight (g) X ± SD (mouse Lewis lung cancer; lyophilized preparation, 5 mg/kg/d ivx10qd): 1.56 ± 0.14 g | Tumour weight (g) X ± SD (mouse Lewis lung cancer; lyophilized preparation, 10 mg/kg/d ivx10qd): 1.34 ± 0.18 g | Tumour weight (g) X ± SD (mouse Lewis lung cancer; lyophilized preparation, 15 mg/kg/d ivx10qd): 1.20 ± 0.20 g | Inhibition efficiency (mouse Lewis lung cancer; lyophilized preparation, hypodermic inoculation, 5 mg/kg/d ivx10qd): 36.33 | Inhibition efficiency (mouse Lewis lung cancer; lyophilized preparation, hypodermic inoculation, 10 mg/kg/d ivx10qd): 45.31 | Inhibition efficiency (mouse Lewis lung cancer; lyophilized preparation, hypodermic inoculation, 15 mg/kg/d ivx10qd): 51.20 | IC50 ([6]; human lung cancer cells, read-out: Ic 50 for growth of the human lung cancer cells): 1.5 µg/mL (≈ 2.67 µM) | IC50 [6, 24]: 1.5 µg/mL (≈ 2.67 µM) | IC50 [7, 24]: 22.3 µg/mL (≈ 39.6 µM) | IC50 [8, 24]: 8.71 µg/mL (≈ 15.5 µM) | IC50 [9, 24]: > 100 µg/mL
